What was measured:
CYP3A4 = assay: Liver organ imaging in the presence of CYP3A4 inhibitor; set-up: species or system mice; details: male, C57BL/6J, mouse, isolated liver tissue, probe NCN (50 µM); read-out: residual activity of hepatic CYP3A4
Method: dose group (CCl4-L, 0.15%), and CCl4 high dose group (CCl4-H, 0.3%). CCl4 was dissolved in vegetable oil and administered via intraperitoneal injection. After that, mice were fasted and allowed to drink water freely. After 18 h, blood samples were collected to determine the level of ALT and AST, while liver tissues were collected and washed with PBS. Then, the liver tissues were soaked 30 min in a solution containing NCN (50 μM, 5 mL) for fluorescent imaging. After organ imaging, the tissues were ground, and centrifuged, and the supernatant was diluted with 10-fold acetonitrile to precipitate the protein. After centrifugation again, the supernatant was determined to quantify the level of HNCN.
1.15. Bio-safety assessment of NCN in healthy mice
Sixteen C57BL/6J mice (8 males and 8 females, 6 weeks) were randomly assigned into two groups (4 males and 4 females). All mice were subjected to adaptive feeding for 7 d before the experiment. […] Mice organs were weighed and the organ index was calculated, and hematoxylin and eosin (H&E) stains were provided by Shanghai Ruibaohe Biotechnology Co., Ltd. […]
After that, the liver tissues were removed, and fluorescence imaging of the liver was performed using VISQUE Invivo Smart-LF. […]
quantify the levels of HNCN. […]
fluorescence intensity of the control (solvent only)) × 100%. […]

CYP3A = CYP3A inhibition assay in mouse liver microsomes; type: biochemical; details: MLMs

Work on CC(=O)N1CCN(c2ccc(OCC3COC(Cn4ccnc4)(c4ccc(Cl)cc4Cl)O3)cc2)CC1 (centres unmarked) [KCZ, ketoconazole] yielded an activity at 1 h, 1 µM (CYP3A4) of about 20% and an IC50 (CYP3A) of […].
